# Measurements: patent US20260285875A1, “INHIBITORS OF PARG” (858 Therapeutics, Inc., priority 2023, published 2026)
# Target: T1, cellular PARG (Homo sapiens, UniProt Q86W56)
# T1 construct: endogenous in cells; host or cells: HeLa
# Assay: Nuclear PAR accumulation assay (immunofluorescence high-content imaging, MMS-treated HeLa cells)
# Format: cell-based
# Details: 1 hour compound then MMS 50 μg/mL for an additional hour
# Procedure, shortened: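 HeLa cells pretreated with compound for 1 h at 37° C, then given 50 μg/mL MMS for another hour. After methanol fixation, PAR was immunostained with DAPI nuclear counterstain; per-nucleus intensity and percent PAR-positive cells were imaged at 20× (≥1,000 cells/well). IC50 from four-parameter logistic fit.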
# T1 sequence (Q86W56 whole entry): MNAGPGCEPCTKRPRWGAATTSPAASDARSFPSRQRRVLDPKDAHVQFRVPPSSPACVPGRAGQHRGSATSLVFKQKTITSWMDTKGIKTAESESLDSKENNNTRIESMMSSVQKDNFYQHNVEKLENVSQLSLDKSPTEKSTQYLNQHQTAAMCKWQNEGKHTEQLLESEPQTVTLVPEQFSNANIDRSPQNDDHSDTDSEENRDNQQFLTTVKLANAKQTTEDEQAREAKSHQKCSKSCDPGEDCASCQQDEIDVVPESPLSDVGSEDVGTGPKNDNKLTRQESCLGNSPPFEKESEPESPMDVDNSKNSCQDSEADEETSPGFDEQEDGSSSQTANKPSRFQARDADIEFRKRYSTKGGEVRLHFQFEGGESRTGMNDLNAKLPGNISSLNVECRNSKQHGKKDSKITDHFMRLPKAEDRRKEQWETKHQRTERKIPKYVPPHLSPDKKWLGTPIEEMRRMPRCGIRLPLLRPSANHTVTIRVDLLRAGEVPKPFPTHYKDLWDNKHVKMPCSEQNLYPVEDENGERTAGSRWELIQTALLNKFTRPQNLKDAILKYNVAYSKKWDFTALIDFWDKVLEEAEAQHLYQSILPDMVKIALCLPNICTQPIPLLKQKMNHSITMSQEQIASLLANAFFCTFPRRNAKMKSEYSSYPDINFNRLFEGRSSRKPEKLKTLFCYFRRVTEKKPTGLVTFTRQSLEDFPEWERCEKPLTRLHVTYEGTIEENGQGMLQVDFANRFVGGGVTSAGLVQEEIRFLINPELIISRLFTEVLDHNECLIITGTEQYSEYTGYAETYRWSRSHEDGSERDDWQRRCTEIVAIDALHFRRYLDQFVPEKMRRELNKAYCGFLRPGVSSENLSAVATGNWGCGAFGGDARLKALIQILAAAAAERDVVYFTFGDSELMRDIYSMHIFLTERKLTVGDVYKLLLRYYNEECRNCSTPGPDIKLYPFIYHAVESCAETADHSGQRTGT
row,Compound,IC50
1,"CC(=O)N1CCn2ncc(CN3C(=O)c4cc(S(=O)(=O)NC5(C)CC5)ccc4N4C3=NC[C@H]4C)c2C1 [Example 279, (R)-4-((5-acetyl-4,5,6,7-tetrahydropyrazolo[1,5-a]pyrazin-3-yl)methyl)-1-methyl-N-(1-methylcyclopropyl)-5-oxo-1,2,4,5-tetrahydroimidazo[1,2-a]quinazoline-7-sulfonamide]",0.1 to 1 µM
2,"C[C@@H]1CN=C2N(CC(F)F)C(=O)c3cc(S(=O)(=O)NC4(C)CC4)ccc3N21 [Example 139, (R)-4-(2,2-difluoroethyl)-1-methyl-N-(1-methylcyclopropyl)-5-oxo-1,2,4,5-tetrahydroimidazo[1,2-a]quinazoline-7-sulfonamide]",0.1 to 1 µM
3,"Cc1ccc(C#CC2CN=C3N(C)C(=O)c4cc(S(=O)(=O)NC5(C)CC5)ccc4N32)cn1 (stereo not shown) [Example 203, 4-methyl-N-(1-methylcyclopropyl)-1-((6-methylpyridin-3-yl)ethynyl)-5-oxo-1,2,4,5-tetrahydroimidazo[1,2-a]quinazoline-7-sulfonamide]",< 0.1 µM
4,"Cn1cc(CN2C(=O)c3cc(S(=O)(=O)NC4(C)CC4)ccc3N3C2=NCC3COc2cccc(Cl)c2)cn1 (stereo not shown) [Example 138, 1-((3-chlorophenoxy)methyl)-4-((1-methyl-1H-pyrazol-4-yl)methyl)-N-(1-methylcyclopropyl)-5-oxo-1,2,4,5-tetrahydroimidazo[1,2-a]quinazoline-7-sulfonamide]",0.1 to 1 µM
5,"[2H]C([2H])(c1cnn(C)c1)N1C(=O)c2cc(S(=O)(=O)NC3(C)CC3)ccc2N2C1=NC[C@H]2C#CC(C)(C)N [Example 105, (R)-1-(3-amino-3-methylbut-1-yn-1-yl)-4-((1-methyl-1H-pyrazol-4-yl)methyl-d2)-N-(1-methylcyclopropyl)-5-oxo-1,2,4,5-tetrahydroimidazo[1,2-a]quinazoline-7-sulfonamide]",0.1 to 1 µM
6,"[2H]C([2H])(c1cnn(C)c1)N1C(=O)c2cc(S(=O)(=O)NC3(C)CC3)ccc2N2C1=NC[C@H]2C#Cc1cn(C)nc1C [Example 232, (R)-1-((1,3-dimethyl-1H-pyrazol-4-yl)ethynyl)-4-((1-methyl-1H-pyrazol-4-yl)methyl-d2)-N-(1-methylcyclopropyl)-5-oxo-1,2,4,5-tetrahydroimidazo[1,2-a]quinazoline-7-sulfonamide]",< 0.1 µM
7,"C[C@@H]1CN=C2N(Cc3cnn(C)c3)C(=O)c3cc(S(=O)(=O)NC4(C)CC4)cc(N4CC(C)(C#N)C4)c3N21 [Example 146, (R)-9-(3-cyano-3-methylazetidin-1-yl)-1-methyl-4-((1-methyl-1H-pyrazol-4-yl)methyl)-N-(1-methylcyclopropyl)-5-oxo-1,2,4,5-tetrahydroimidazo[1,2-a]quinazoline-7-sulfonamide]",1 to 10 µM
8,"[2H]C([2H])(c1cnn(C)c1)N1C(=O)c2cc(S(=O)(=O)NC3(C)CC3)ccc2N2C1=NC[C@H]2C#Cc1cccnn1 [Example 260, (R)-4-((1-methyl-1H-pyrazol-4-yl)methyl-d2)-N-(1-methylcyclopropyl)-5-oxo-1-(pyridazin-3-ylethynyl)-1,2,4,5-tetrahydroimidazo[1,2-a]quinazoline-7-sulfonamide]",< 0.1 µM
9,"C#CC1(C)CN=C2N(Cc3cnn(C)c3)C(=O)c3cc(S(=O)(=O)NC4(C)CC4)ccc3N21 (single isomer, unassigned) [Example 272, 1-ethynyl-1-methyl-4-((1-methyl-1H-pyrazol-4-yl)methyl)-N-(1-methylcyclopropyl)-5-oxo-1,2,4,5-tetrahydroimidazo[1,2-a]quinazoline-7-sulfonamide]",< 0.1 µM
10,"COc1ccc2ncc(C#C[C@@H]3CN=C4N(C)C(=O)c5cc(S(=O)(=O)NC6(C)CC6)ccc5N43)n2n1 [Example 181, (R)-1-((6-methoxyimidazo[1,2-b]pyridazin-3-yl)ethynyl)-4-methyl-N-(1-methylcyclopropyl)-5-oxo-1,2,4,5-tetrahydroimidazo[1,2-a]quinazoline-7-sulfonamide]",< 0.1 µM
11,"CN1C(=O)c2cc(S(=O)(=O)NC3(C)CC3)ccc2N2C1=NC[C@H]2C#Cc1cnc2ncccn12 [Example 171, (R)-1-(imidazo[1,2-a]pyrimidin-3-ylethynyl)-4-methyl-N-(1-methylcyclopropyl)-5-oxo-1,2,4,5-tetrahydroimidazo[1,2-a]quinazoline-7-sulfonamide]",0.1 to 1 µM
12,"Cn1cc(CN2C(=O)c3cc(S(=O)(=O)NC4(C)CC4)ccc3N3C2=N[C@H]2COCC[C@H]23)cn1 [Example 158, (7aR,11aR)-6-((1-methyl-1H-pyrazol-4-yl)methyl)-N-(1-methylcyclopropyl)-5-oxo-5,6,7a,10,11,11a-hexahydro-8H-pyrano[3′,4′:4,5]imidazo[1,2-a]quinazoline-3-sulfonamide]",0.1 to 1 µM
13,"[2H]C([2H])(c1cnn(C)c1)N1C(=O)c2cc(S(=O)(=O)NC3(C)CC3)ccc2N2C1=NC[C@H]2C#Cc1cncc(N)c1 [Example 252, (R)-1-((5-aminopyridin-3-yl)ethynyl)-4-((1-methyl-1H-pyrazol-4-yl)methyl-d2)-N-(1-methylcyclopropyl)-5-oxo-1,2,4,5-tetrahydroimidazo[1,2-a]quinazoline-7-sulfonamide]",< 0.1 µM
14,"CN1C(=O)c2cc(S(=O)(=O)NC3(C)CC3)ccc2N2C1=NCC2C#Cc1ccnc2c1OCCO2 (stereo not shown) [Example 170, 1-((2,3-dihydro-[1,4]dioxino[2,3-b]pyridin-8-yl)ethynyl)-4-methyl-N-(1-methylcyclopropyl)-5-oxo-1,2,4,5-tetrahydroimidazo[1,2-a]quinazoline-7-sulfonamide]",< 0.1 µM
15,"C#C[C@@H]1CN=C2N(C)C(=O)c3cc(S(=O)(=O)NC4(C)CC4)cc(Br)c3N21 [Example 38, (R)-9-bromo-1-ethynyl-4-methyl-N-(1-methylcyclopropyl)-5-oxo-1,2,4,5-tetrahydroimidazo[1,2-a]quinazoline-7-sulfonamide]",< 0.1 µM
16,"Cn1cc(CN2C(=O)c3cc(S(=O)(=O)NC4(C)CC4)ccc3N3C2=NCC3C#Cc2ccncn2)cn1 (stereo not shown) [Example 132, 4-((1-methyl-1H-pyrazol-4-yl)methyl)-N-(1-methylcyclopropyl)-5-oxo-1-(pyrimidin-4-ylethynyl)-1,2,4,5-tetrahydroimidazo[1,2-a]quinazoline-7-sulfonamide]",0.1 to 1 µM
17,"C[C@@H]1CN=C2N(C)C(=O)c3cc(S(=O)(=O)NC4(C)CC4)cc(N4CCN(C(=O)N(C)C)CC4)c3N21 [Example 33, (R)-4-(1,4-dimethyl-7-(N-(1-methylcyclopropyl)sulfamoyl)-5-oxo-1,2,4,5-tetrahydroimidazo[1,2-a]quinazolin-9-yl)-N,N-dimethylpiperazine-1-carboxamide]",< 0.1 µM
18,"CC(=O)N1CCN(c2cc(S(=O)(=O)NC3(C)CC3)cc3c2N2C(=NC[C@H]2C)N(Cc2cnn(C)c2)C3=O)CC1 [Example 292, (R)-9-(4-acetylpiperazin-1-yl)-1-methyl-4-((1-methyl-1H-pyrazol-4-yl)methyl)-N-(1-methylcyclopropyl)-5-oxo-1,2,4,5-tetrahydroimidazo[1,2-a]quinazoline-7-sulfonamide]",0.1 to 1 µM
19,"CN1C(=O)c2cc(S(=O)(=O)NC3(C)CC3)ccc2N2C1=NCC2C#Cc1ccn(C)c(=O)c1 (stereo not shown) [Example 200, 4-methyl-1-((1-methyl-2-oxo-1,2-dihydropyridin-4-yl)ethynyl)-N-(1-methylcyclopropyl)-5-oxo-1,2,4,5-tetrahydroimidazo[1,2-a]quinazoline-7-sulfonamide]",0.1 to 1 µM
